Legend:
Assay in all cases: KINOMEscan competition binding
Details in all cases: compound 10.0 µM
[1] = system: ABL1 (human), P00519 [M351T]
AKT1 (human) = AKT1 (human) (UniProt P31749)
BMPR1B (human) = BMPR1B (human) (UniProt O00238)
CAMK2A (human) = CAMK2A (human) (UniProt Q9UQM7)
CAMK2B (human) = CAMK2B (human) (UniProt Q13554)
CDK11B (human) = CDK11B (human) (UniProt P21127)
CDK4 CCND3 (human) = CDK4 CCND3 (human) (UniProt P11802+P30281)
CDK8 (human) = CDK8 (human) (UniProt P49336)
CDKL3 (human) = CDKL3 (human) (UniProt Q8IVW4)
CLK4 (human) = CLK4 (human) (UniProt Q9HAZ1)
CPK1 (P.falciparum) = system: CPK1 (P.falciparum)
CSNK1G3 (human) = CSNK1G3 (human) (UniProt Q9Y6M4)
[2] = system: FLT3 (human), P36888 [N841I]
[3] = system: FLT3 (human), P36888 [R834Q]
FLT4 (human) = FLT4 (human) (UniProt P35916)
GRK4 (human) = GRK4 (human) (UniProt P32298)
HIPK2 (human) = HIPK2 (human) (UniProt Q9H2X6)
HIPK4 (human) = HIPK4 (human) (UniProt Q8NE63)
IKBKB (human) = IKBKB (human) (UniProt O14920)
LATS2 (human) = LATS2 (human) (UniProt Q9NRM7)
MAP4K1 (human) = MAP4K1 (human) (UniProt Q92918)
MAPK13 (human) = MAPK13 (human) (UniProt O15264)
MAPKAPK2 (human) = MAPKAPK2 (human) (UniProt P49137)
MET (human) = MET (human) (UniProt P08581)
MUSK (human) = MUSK (human) (UniProt O15146)
NEK1 (human) = NEK1 (human) (UniProt Q96PY6)
PAK7 (human) = PAK7 (human) (UniProt Q9P286)
PHKG1 (human) = PHKG1 (human) (UniProt Q16816)
[4] = system: PIK3CA (human), P42336 [M1043I]
PIP4K2B (human) = PIP4K2B (human) (UniProt P78356)
PRKACB (human) = PRKACB (human) (UniProt P22694)
PTK2B (human) = PTK2B (human) (UniProt Q14289)
ROCK1 (human) = ROCK1 (human) (UniProt Q13464)
ROS1 (human) = ROS1 (human) (UniProt P08922)
RPS6KA2 KD2 (human) = RPS6KA2 KD2 (human) (UniProt Q15349)
RPS6KA3 KD1 (human) = RPS6KA3 KD1 (human) (UniProt P51812)
RPS6KA4 KD2 (human) = RPS6KA4 KD2 (human) (UniProt O75676)
STK17B (human) = STK17B (human) (UniProt O94768)
[5] = target: TYK2 JH1 catalytic (human) (UniProt P29597)
ULK2 (human) = ULK2 (human) (UniProt Q8IYT8)
ULK3 (human) = ULK3 (human) (UniProt Q6PHR2)
Sequence of ULK3 (human) (Q6PHR2 whole entry, looked up): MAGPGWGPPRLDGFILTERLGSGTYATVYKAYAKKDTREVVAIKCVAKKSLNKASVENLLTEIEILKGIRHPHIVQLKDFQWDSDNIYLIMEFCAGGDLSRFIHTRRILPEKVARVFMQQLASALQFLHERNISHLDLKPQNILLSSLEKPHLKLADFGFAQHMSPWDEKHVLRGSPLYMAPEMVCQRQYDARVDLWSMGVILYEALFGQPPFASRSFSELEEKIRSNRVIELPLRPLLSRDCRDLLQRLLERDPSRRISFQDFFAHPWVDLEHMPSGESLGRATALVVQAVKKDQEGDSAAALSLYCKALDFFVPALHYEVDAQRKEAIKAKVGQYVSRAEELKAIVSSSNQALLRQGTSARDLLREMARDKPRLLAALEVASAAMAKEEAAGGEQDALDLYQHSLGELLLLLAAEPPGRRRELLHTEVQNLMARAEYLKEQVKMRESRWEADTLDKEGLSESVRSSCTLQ

Sequence of MUSK (human) (O15146 whole entry, looked up): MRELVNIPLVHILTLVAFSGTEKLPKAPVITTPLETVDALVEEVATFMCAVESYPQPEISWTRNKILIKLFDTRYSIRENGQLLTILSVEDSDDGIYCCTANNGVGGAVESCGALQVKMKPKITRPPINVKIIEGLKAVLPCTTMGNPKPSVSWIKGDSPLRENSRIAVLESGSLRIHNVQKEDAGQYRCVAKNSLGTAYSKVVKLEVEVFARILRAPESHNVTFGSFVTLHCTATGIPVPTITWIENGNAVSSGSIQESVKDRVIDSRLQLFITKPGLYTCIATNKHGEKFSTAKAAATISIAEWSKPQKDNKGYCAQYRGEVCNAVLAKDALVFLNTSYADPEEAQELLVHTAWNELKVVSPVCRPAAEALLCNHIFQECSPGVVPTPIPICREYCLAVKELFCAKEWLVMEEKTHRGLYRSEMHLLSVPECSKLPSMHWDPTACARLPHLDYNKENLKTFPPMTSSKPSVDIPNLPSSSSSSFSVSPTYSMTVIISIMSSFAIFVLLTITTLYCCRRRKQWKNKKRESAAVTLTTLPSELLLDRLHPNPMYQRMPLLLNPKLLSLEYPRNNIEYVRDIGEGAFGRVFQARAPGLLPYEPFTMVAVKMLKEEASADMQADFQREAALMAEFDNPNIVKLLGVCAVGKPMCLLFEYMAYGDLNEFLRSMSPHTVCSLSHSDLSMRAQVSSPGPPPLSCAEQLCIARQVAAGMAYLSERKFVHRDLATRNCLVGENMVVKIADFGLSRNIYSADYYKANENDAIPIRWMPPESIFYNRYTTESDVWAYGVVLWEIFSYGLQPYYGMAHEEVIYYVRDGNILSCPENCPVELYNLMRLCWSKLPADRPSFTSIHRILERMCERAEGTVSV
Sequence of MET (human) (P08581 whole entry, looked up): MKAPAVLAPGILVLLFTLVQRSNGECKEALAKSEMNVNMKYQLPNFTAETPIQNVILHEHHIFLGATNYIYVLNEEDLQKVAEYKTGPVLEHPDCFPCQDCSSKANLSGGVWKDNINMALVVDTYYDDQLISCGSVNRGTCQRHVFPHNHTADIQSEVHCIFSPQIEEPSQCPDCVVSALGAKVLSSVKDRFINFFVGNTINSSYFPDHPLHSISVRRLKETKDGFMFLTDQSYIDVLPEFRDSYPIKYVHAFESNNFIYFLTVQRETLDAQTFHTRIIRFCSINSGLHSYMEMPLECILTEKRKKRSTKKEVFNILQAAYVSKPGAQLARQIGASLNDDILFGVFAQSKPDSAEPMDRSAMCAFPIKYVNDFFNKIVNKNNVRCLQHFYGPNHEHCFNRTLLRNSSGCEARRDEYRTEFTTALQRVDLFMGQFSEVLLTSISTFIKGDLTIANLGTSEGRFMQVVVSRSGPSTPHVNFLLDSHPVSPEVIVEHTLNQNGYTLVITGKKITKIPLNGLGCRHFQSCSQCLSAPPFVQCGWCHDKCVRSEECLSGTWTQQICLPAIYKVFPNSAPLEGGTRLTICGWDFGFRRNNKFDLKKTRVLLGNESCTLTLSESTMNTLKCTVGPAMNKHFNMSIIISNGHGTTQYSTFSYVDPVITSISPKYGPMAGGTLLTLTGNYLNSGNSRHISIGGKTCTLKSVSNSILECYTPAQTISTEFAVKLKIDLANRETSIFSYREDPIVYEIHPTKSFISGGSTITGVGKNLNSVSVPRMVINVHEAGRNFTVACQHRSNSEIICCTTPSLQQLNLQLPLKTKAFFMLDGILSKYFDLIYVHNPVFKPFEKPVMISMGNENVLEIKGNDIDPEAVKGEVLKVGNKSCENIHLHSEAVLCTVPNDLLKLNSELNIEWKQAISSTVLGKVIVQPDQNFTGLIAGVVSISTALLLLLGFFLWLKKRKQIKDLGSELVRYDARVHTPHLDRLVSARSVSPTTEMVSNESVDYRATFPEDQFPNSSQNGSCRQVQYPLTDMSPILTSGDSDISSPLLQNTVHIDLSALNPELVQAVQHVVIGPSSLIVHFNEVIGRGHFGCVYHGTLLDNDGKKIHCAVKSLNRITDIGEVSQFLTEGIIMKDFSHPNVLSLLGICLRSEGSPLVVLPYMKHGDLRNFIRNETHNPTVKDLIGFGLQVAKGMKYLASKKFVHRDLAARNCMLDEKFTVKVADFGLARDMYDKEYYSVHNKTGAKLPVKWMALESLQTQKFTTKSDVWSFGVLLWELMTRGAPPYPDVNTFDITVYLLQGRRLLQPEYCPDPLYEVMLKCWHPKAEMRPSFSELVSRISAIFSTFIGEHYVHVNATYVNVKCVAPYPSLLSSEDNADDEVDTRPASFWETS
Sequence of CDK8 (human) (P49336 whole entry, looked up): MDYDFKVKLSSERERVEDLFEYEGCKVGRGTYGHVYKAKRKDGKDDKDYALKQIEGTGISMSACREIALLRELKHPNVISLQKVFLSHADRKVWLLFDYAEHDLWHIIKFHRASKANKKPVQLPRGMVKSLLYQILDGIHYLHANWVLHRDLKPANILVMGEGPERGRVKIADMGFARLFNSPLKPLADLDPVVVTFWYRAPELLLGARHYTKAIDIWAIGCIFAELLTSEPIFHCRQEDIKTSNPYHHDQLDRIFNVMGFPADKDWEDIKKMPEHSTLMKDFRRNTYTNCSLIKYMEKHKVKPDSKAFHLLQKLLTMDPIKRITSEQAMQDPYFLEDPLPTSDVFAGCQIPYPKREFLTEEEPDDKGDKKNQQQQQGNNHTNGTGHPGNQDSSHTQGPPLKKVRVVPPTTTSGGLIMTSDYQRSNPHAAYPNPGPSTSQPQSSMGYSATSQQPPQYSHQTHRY
Sequence of PIK3CA (human), P42336 [M1043I] (P42336 whole entry M1043I, looked up): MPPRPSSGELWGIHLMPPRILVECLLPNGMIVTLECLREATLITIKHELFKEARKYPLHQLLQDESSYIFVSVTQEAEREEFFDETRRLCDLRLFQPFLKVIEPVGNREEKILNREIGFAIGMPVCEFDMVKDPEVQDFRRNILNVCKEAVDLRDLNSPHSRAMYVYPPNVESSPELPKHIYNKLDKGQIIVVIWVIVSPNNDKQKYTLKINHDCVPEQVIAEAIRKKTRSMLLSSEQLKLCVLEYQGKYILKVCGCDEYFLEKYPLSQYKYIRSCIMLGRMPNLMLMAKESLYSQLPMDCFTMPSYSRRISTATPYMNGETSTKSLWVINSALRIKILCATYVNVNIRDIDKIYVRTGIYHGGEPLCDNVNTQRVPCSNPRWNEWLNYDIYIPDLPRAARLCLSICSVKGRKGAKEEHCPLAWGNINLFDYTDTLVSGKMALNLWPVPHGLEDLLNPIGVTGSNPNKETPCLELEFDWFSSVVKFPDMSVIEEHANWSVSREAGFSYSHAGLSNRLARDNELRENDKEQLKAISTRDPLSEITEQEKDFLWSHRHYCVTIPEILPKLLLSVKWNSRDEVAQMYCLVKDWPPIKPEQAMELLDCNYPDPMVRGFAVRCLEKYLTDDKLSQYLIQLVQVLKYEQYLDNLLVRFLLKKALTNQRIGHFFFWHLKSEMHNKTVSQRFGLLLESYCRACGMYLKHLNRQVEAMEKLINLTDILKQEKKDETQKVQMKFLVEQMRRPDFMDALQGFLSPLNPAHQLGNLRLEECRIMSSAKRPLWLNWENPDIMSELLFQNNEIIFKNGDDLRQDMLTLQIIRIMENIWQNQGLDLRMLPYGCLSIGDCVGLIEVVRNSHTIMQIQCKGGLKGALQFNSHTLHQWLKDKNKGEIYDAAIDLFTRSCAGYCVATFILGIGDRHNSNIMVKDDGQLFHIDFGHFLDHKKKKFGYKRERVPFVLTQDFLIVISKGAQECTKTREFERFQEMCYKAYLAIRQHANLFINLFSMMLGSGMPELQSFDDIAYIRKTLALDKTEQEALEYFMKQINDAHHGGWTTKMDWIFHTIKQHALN
Sequence of CDK4 CCND3 (human) (P11802 whole entry, looked up): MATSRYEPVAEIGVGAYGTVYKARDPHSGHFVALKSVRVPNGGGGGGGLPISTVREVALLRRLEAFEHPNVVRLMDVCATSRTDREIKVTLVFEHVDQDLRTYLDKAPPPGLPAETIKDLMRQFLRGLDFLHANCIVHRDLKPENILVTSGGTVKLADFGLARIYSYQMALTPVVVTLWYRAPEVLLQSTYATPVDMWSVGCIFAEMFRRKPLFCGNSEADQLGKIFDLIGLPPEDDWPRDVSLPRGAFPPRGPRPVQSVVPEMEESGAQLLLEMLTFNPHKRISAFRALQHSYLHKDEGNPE
Sequence of CDK4 CCND3 (human) (P30281 whole entry, looked up): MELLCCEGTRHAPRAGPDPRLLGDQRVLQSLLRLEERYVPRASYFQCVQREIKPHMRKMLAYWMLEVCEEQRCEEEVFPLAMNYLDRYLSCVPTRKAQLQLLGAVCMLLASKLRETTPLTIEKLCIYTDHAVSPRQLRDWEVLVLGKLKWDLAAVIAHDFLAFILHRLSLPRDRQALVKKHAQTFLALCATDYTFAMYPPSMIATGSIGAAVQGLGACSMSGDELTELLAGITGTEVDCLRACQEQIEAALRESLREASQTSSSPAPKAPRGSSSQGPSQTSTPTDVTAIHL

SMILES: COc1ccc(-c2ccc3c(N4CCOCC4)nc(N4C[C@@H](C)O[C@@H](C)C4)nc3n2)cc1CO
- kinase still bound, per cent of control [1]: 100%
- kinase still bound, per cent of control (AKT1 (human)): 88%
- kinase still bound, per cent of control (BMPR1B (human)): 99%
- kinase still bound, per cent of control (CAMK2A (human)): 87%
- kinase still bound, per cent of control (CAMK2B (human)): 96%
- per cent of control (CDK11B (human)): 100%
- per cent of control (CDK4 CCND3 (human)): 80%
- per cent of control (CDK8 (human)): 100%
- per cent of control (CDKL3 (human)): 90%
- kinase still bound, per cent of control (CLK4 (human)): 62%
- kinase still bound, per cent of control (CPK1 (P.falciparum)): 100%
- kinase still bound, per cent of control (CSNK1G3 (human)): 92%
- kinase still bound, per cent of control [2]: 82%
- kinase still bound, per cent of control [3]: 100%
- kinase still bound, per cent of control (FLT4 (human)): 100%
- kinase still bound, per cent of control (GRK4 (human)): 67%
- kinase still bound, per cent of control (HIPK2 (human)): 58%
- kinase still bound, per cent of control (HIPK4 (human)): 88%
- kinase still bound, per cent of control (IKBKB (human)): 100%
- kinase still bound, per cent of control (LATS2 (human)): 89%
- kinase still bound, per cent of control (MAP4K1 (human)): 88%
- kinase still bound, per cent of control (MAPK13 (human)): 71%
- kinase still bound, per cent of control (MAPKAPK2 (human)): 92%
- kinase still bound, per cent of control (MET (human)): 88%
- kinase still bound, per cent of control (MUSK (human)): 100%
- kinase still bound, per cent of control (NEK1 (human)): 100%
- kinase still bound, per cent of control (PAK7 (human)): 76%
- kinase still bound, per cent of control (PHKG1 (human)): 93%
- kinase still bound, per cent of control [4]: 2%
- kinase still bound, per cent of control (PIP4K2B (human)): 100%
- per cent of control (PRKACB (human)): 96%
- kinase still bound, per cent of control (PTK2B (human)): 84%
- kinase still bound, per cent of control (ROCK1 (human)): 89%
- kinase still bound, per cent of control (ROS1 (human)): 100%
- kinase still bound, per cent of control (RPS6KA2 KD2 (human)): 94%
- kinase still bound, per cent of control (RPS6KA3 KD1 (human)): 99%
- kinase still bound, per cent of control (RPS6KA4 KD2 (human)): 95%
- kinase still bound, per cent of control (STK17B (human)): 100%
- kinase still bound, per cent of control [5]: 100%
- kinase still bound, per cent of control (ULK2 (human)): 100%
- kinase still bound, per cent of control (ULK3 (human)): 100%
